# Data as given in patent US20130102752A1, “BENZINDOCYANINE COMPOUND FOR LABELING SUBSTANCE, INTERMEDIATE THEREOF, AND METHOD FOR PREPARING THE SAME” (DKC CORPORATION, priority 2010, published 2013).
# Experiments:
# [1] = Absorption wavelength of the synthesized dye (HP 8452 diode array spectrophotometer); type: physicochemical
# Method: (§1) First, the experimental apparatuses, analytical instruments and reagents used in the examples and experiments are described. Bruker's Avance 300 and 400 were used for FT-NMR spectroscopy, and the Voyager MALDI-TOF DE mass spectrometer was used for MALDI-TOF M/S. Absorption wavelength of the synthesized dye and the absorbance at maximum absorption wavelength were measured using Hewlett-Packard's HP 8452 diode array spectrophotometer. Emission wavelength and light emission at maximum emission wavelength were measured using Perkin Elmer's LS-55.
# [2] = Emission wavelength at maximum emission (Perkin Elmer LS-55); type: physicochemical
# Method: as §1
# [3] = tested on: marker proteins (Amersham LMW calibration kit: phosphorylase b, albumin, ovalbumin, carbonic anhydrase, trypsin inhibitor, α-lactalbumin); assay: Staining of proteins, separated by gel electrophoresis, fluorescence image; conditions: 0.1M phosphate buffer pH 9.0, room temperature, 1 hour; electrophoresis 125 V, 2 hours
# Method: Gel electrophoresis was carried out using Bio-Rad's PowerPac Basic Power Supply (Catalog No. 164-5050) coupled to the Amersham Biosciences's SE260 mini-vertical gel electrophoresis unit. Lonza's PAGEr Gold Precast Gels (polyacrylamide gels for protein electrophoresis, 10-20% Tris-glycine gels, Catalog No. 59506) were used as gels. Running and loading buffers for SDS-PAGE were prepared as follows prior to use.
# Size markers commercially available from GE Healthcare and Takara were used as proteins. Perkin Elmer's Geliance 600 was used for observation of labeled biomolecules and measurement of fluorescence intensity. Geliance UV Epi (Catalog No. L7110026) and Geliance Blue Epi (Catalog No. L7110027) were used as light sources. Measurement was carried out using UV filter, Geliance short-pass filter (500-600 nm), Geliance long-pass filter (580-660 nm) and Geliance blue light filter (550-600 nm) while changing the filters in accordance with fluorescence wavelengths.
# Each vial of one pack of Amersham™ LMW calibration kit (17-0446-01) for SDS electrophoresis commercially available from GE Healthcare contains 576 μg of six marker proteins, which are phosphorylase b (97 kD, 67 μg), albumin (66 kD, 83 μg), ovalbumin (45 kD, 147 μg), carbonic anhydrase (30 kD, 83 μg), trypsin inhibitor (20.1 kD, 80 μg) and α-lactalbumin (14.4 kD, 116 μg). […]
SMILES,λabs (water) [1] [nm],λfl (water) [2] [nm],visibility of stained proteins after gel electrophoresis (FIG. 1) [3],λabs (methanol) [1] [nm],λfl (methanol) [2] [nm]
CC[N+]1=C(/C=C/C=C2/N(CCCCCC(=O)O)c3ccc4c(S(=O)(=O)O)cc(S(=O)(=O)O)cc4c3C2(C)C)C(C)(C)c2c1ccc1c(S(=O)(=O)[O-])cc(S(=O)(=O)O)cc21,579,594,–,–,–
C=CS(=O)(=O)CCNC(=O)CCCCCN1/C(=C/C=C/C=C/C2=[N+](CC)c3ccc4c(S(=O)(=O)[O-])cc(S(=O)(=O)O)cc4c3C2(C)C)C(C)(C)c2c1ccc1c(S(=O)(=O)O)cc(S(=O)(=O)O)cc21 [Compound 1-1],675,695,discernible with naked eyes,–,–
C=CS(=O)(=O)CCNC(=O)CCCCCN1/C(=C/C=C/C=C/C=C/C2=[N+](CC)c3ccc4c(S(=O)(=O)[O-])cc(S(=O)(=O)O)cc4c3C2(C)C)C(C)(C)c2c1ccc1c(S(=O)(=O)O)cc(S(=O)(=O)O)cc21 [Compound 1-2],777,803,discernible with naked eyes,–,–
C=CS(=O)(=O)CCNC(=O)CCCCCN1/C(=C/C=C/C2=[N+](CC)c3ccc4c(S(=O)(=O)[O-])cc(S(=O)(=O)O)cc4c3C2(C)C)C(C)(C)c2c1ccc1c(S(=O)(=O)O)cc(S(=O)(=O)O)cc21 [Compound 1-3],579,594,–,–,–
C=CS(=O)(=O)CCNC(=O)CCCCCN1/C(=C/C=C/C=C/C2=[N+](CC)c3ccc4ccccc4c3C2(C)C)C(C)(C)c2c1ccc1ccccc21 [Compound 1-4],–,–,–,680,710
C=CS(=O)(=O)CCNC(=O)CCCCCCCN1/C(=C/C=C/C=C/C2=[N+](CC)c3ccc4c(S(=O)(=O)O)cc(S(=O)(=O)[O-])cc4c3C2(C)C)C(C)(C)c2c1ccc1c(S(=O)(=O)O)cc(S(=O)(=O)O)cc21 [Compound 1-5],675,704,–,–,–
CC[N+]1=C(/C=C/C=C/C=C2/N(CCCCCC(=O)O)c3ccc4c(S(=O)(=O)O)cc(S(=O)(=O)O)cc4c3C2(C)C)C(C)(C)c2c1ccc1c(S(=O)(=O)[O-])cc(S(=O)(=O)O)cc21 [Compound 10-1],675,695,–,–,–
CC[N+]1=C(/C=C/C=C/C=C/C=C2/N(CCCCCC(=O)O)c3ccc4c(S(=O)(=O)O)cc(S(=O)(=O)O)cc4c3C2(C)C)C(C)(C)c2c1ccc1c(S(=O)(=O)[O-])cc(S(=O)(=O)O)cc21 [Compound 10-3],777,803,–,–,–
CC[N+]1=C(/C=C/C=C/C=C2/N(CCCCCC(=O)O)c3ccc4ccccc4c3C2(C)C)C(C)(C)c2c1ccc1ccccc21 [Compound 10-4],–,–,–,697,713
CC[N+]1=C(/C=C/C=C/C=C2/N(CCCCCCCC(=O)O)c3ccc4c(S(=O)(=O)O)cc(S(=O)(=O)O)cc4c3C2(C)C)C(C)(C)c2c1ccc1c(S(=O)(=O)O)cc(S(=O)(=O)[O-])cc21 [Compound 10-5],675,704,–,–,–
